Data as given in the OPERA property sets (Mansouri et al. 2018).
Where a SMILES comes first, the peptide text is derived from it.

| SMILES | logP |
| --- | --- |
| CC(NC(=O)C(C)NC(=O)C(N)C(C)C)C(=O)NC(Cc1ccccc1)C(=O)O (stereo not drawn) (H-VAAF-OH; configuration not given here) | -1.91 |
| O=C(O)Cc1cc(O)ccc1Nc1c(Cl)cccc1Cl | 3.94 |
| O=C(NCC(F)(F)F)NS(=O)(=O)c1cnccc1NC1CCCCCCC1 | 4.22 |
| CCNC(=NC#N)NS(=O)(=O)c1cnccc1NC1CCCCC1 | 0.94 |
| Nc1nnnn1-c1ccc(O)cc1 | 0.33 |
| CCCC(=NOCC)C1=C(O)CC2(CCCC3CCCCC32)OC1=O (stereo not drawn) | 5 |
| C[N+](C)([O-])CCCCc1ccccc1 | 0.46 |
| CCCc1nc(N)nc(N2CCOCC2)n1 | 0.7 |
| O=C1N=C(N2CCCC2)CN1c1ccc(Cl)cc1 | 2 |
| O=C1CN=C(c2ccc(F)cc2)c2ccccc2N1 | 2.38 |
| CCC(C)C(NC(=O)C(CC(C)C)NC(=O)C(N)CO)C(=O)O (stereo not drawn) (H-Ser-Leu-Ile-OH; configuration not given here) | -1.99 |
| Cn1c2c(c3cc([N+](=O)[O-])ccc31)CCNC2 | 2.07 |
| CCOc1cc2ncnc(Nc3cccc(F)c3)c2cc1OCC | 3.71 |
| COCCNc1[nH]cnc2ncnc1-2 | 0.42 |
| COC(=O)Nc1c(C(C)C)cccc1C(C)C | 2.2 |
| Cc1oc2nc3oc(=O)ccc3c(C)c2c1C | 2.19 |
| C=C(C)CC(C)(CCC=C(C)C)OC(C)=O (stereo not drawn) | 4.36 |
| c1cc2cc3ccc4c(c3nc2c2c1NCOC2)COCN4 | 2.17 |
| OC(CCNC1CCCCC1)COc1cccc2ccccc12 (stereo not drawn) | 3.99 |
| CCNc1nc(N)nc(OC)n1 | 0.89 |
| O=C1C(O)N=C(c2ccccc2)c2cc([N+](=O)[O-])ccc2N1CCO (stereo not drawn) | 0.72 |
| Cc1nc2ccccc2c(=O)n1CC(=O)NCc1ccco1 | 1.24 |
| COc1ccc(C2Cc3ccccc3N(CCN(C)C)C(=O)C2OC(C)=O)cc1 (stereo not drawn) | 3.2 |
| CC12CC(Cl)(Cl)C(CC1(Cl)Cl)C2(CCl)C(Cl)Cl (stereo not drawn) | 5.49 |
| O=C(O)CCCCON=C(c1cccc(C(F)(F)F)c1)c1ncccn1 | 2.77 |

| SMILES | logP |
| --- | --- |
| CCC(C)c1cnc(CC(C)C)c(=O)n1O (stereo not drawn) | 1.81 |
| Cc1ccccc1C1CCc2c(C(=O)N(C)C)cn3c(C)c(C)nc3c2O1 (stereo not drawn) | 3.5 |
| CC(C)CC(N)C(=O)NC(Cc1ccc(O)cc1)C(=O)O (stereo not drawn) | -1.94 |
| COc1cc2ncnc(Nc3cccc(I)c3)c2cc1OC | 3.65 |
| CCCCCCNC1=NS(=O)N=C1NCCSCc1ccc(CN(C)C)o1 (stereo not drawn) | 3.46 |
| COC(=O)C(C)NP(=O)(OCC1C=CC(n2cc(C)c(=O)[nH]c2=O)O1)Oc1cccc(F)c1 (stereo not drawn) | 1.08 |
| NC(=S)NN=C(c1cccc([N+](=O)[O-])c1)c1ccccn1 | 1.9 |
| O=C(O)CCCCCON=C(c1ccccc1)c1ncccn1 | 2.25 |
| Nc1nnnn1-c1cccc(Cl)c1 | 1.44 |
| COC(=O)C(C)=CC1C(C(=O)OCc2cccc(C(=O)c3ccccc3)c2)C1(C)C (stereo not drawn) | 5.45 |
| On1nnc2ccccc21 | 0.69 |
| CNc1ccc(-c2cn3cc(SC)ccc3n2)cc1 | 3.9 |
| Cc1cn(C2C=CC(COP3(=O)OCc4cc([N+](=O)[O-])ccc4O3)O2)c(=O)[nH]c1=O (stereo not drawn) | 0.18 |
| Nc1nnnn1-c1cccc(F)c1 | 0.91 |
| COC(=O)Cn1c(C)nc2ccccc2c1=O | 1.46 |
| O=c1cc(CSc2nc3ccccc3s2)occ1O | 2.08 |
| CCCNC(=O)N1C(=O)N(C)CC1O (stereo not drawn) | 0.99 |
| CN1CCN(c2cc3c(cc2F)c(=O)c(C(=O)O)cn3C2CC2)CC1 | 0.15 |
| CCNc1[nH]cnc2ncnc1-2 | 0.92 |
| C=C1C(=O)OC2CC(C)C3C4CC(=O)C3(CC12)C1(C4)C(=O)OC2CC(C)C3C=CC(=O)C3(C)C(O)C21 (stereo not drawn) | 1.66 |
| N#Cc1cccc(Cn2cnc3ccccc32)c1 | 2.47 |
| Cc1oc2ccc3c(C)cc(=O)oc3c2c1C | 3.28 |
| COCCOCCOCCOc1ccc(C2=NC(C)(C(=O)O)CS2)c(O)c1 (stereo not drawn) | 1.3 |
| CC(=O)OCOC(=O)N(C)N=Nc1ccc(Br)cc1 | 3.64 |
| CC1(C)OC23CC1CCC2CCCC3(C)O (stereo not drawn) | 3.57 |

| SMILES | logP |
| --- | --- |
| O=C(NCCCCCOCCCN1CCOCC1)NC12CC3CC(CC(C3)C1)C2 | 2.7 |
| COc1ccc(C2Cc3c(cccc3C(F)(F)F)N(CCN(C)C)C(=O)C2Cc2ccccc2)cc1 (stereo not drawn) | 7.2 |
| CCCCCI | 3.62 |
| OCCN1CCN(CCn2nnc3ccccc32)CC1 | -0.05 |
| O=C1N=C(N2CCOCC2)CN1c1ccccc1 | 0.6 |
| CC(C)C[C@H](NC(=O)[C@@H](NC(=O)[C@@H](N)CC(C)C)C(C)C)C(=O)O (H-Leu-Val-Leu-OH) | -1.57 |
| Cc1ccc2c(c1)COP(=O)(OCC1C=CC(n3cc(C)c(=O)[nH]c3=O)O1)O2 (stereo not drawn) | 0.73 |
| Clc1cc(Cl)c2c(c1)Oc1cc(Cl)c(Cl)c(Cl)c1O2 | 6.4 |
| c1ccc(N2CCN(CCCOn3nnc4ccccc43)CC2)cc1 | 3.49 |
| OCC1OC(n2cnc3c(NCc4ccco4)ncnc32)C(O)C1O (stereo not drawn) | 0.52 |
| CCOCCOCCOc1ccc(NC(=O)NC23CC4CC(CC(C4)C2)C3)cc1 | 3.9 |
| COC(=O)c1c(Oc2nc(OC)cc(OC)n2)cccc1C(C)=NOCC(F)(F)F | 3.39 |
| C[N+](C)([O-])Cc1ccccc1 | -0.57 |
| Cc1nc2c3c(c(C(N)=O)cn2c1C)CCC(c1ccccc1)O3 (stereo not drawn) | 3.5 |
| CC(C)CC(NC(=O)C(N)Cc1c[nH]c2ccccc12)C(=O)O (stereo not drawn) | -0.73 |
| CC(C)CC(NC(=O)CN)C(=O)NC(CC(C)C)C(=O)NCC(=O)NC(Cc1ccccc1)C(=O)O (stereo not drawn) (H-GLLGF-OH; configuration not given here) | -0.18 |
| CC(C)CC(NC(=O)C(CC(C)C)NC(=O)C(C)NC(=O)C(C)NC(=O)CN)C(=O)O (stereo not drawn) (H-GAALL-OH; configuration not given here) | -2.55 |
| Cc1ccc(C(=O)OCCCn2ccc(=O)c(O)c2C)cc1 | 1.79 |
| CC(C)C(N)C(=O)NC(Cc1ccc(O)cc1)C(=O)O (stereo not drawn) (H-Val-Tyr-OH; configuration not given here) | -2.52 |
| CCCCNC(=O)Cn1cccc(O)c1=O | 0.33 |
| O=C(Cc1c(Cl)cc(Cl)cc1Cl)Oc1coc(CO)cc1=O | 1.92 |
| COc1ccc(-c2cc(=O)ss2)cc1 | 3.19 |
| CC1CC2OC(=O)C(C)C2C(O)C2(C)C(=O)C=CC12 (stereo not drawn) | 0.53 |
| CCCCCN(CCCCC)CC(O)c1ccccc1 (stereo not drawn) | 2.86 |
| CC1CCC(C)N1C(=O)Nc1ccccc1 (stereo not drawn) | 2.33 |

| SMILES | logP |
| --- | --- |
| CC(C)C(NC(=O)C(N)Cc1ccccc1)C(=O)NCC(=O)O (stereo not drawn) (H-Phe-Val-Gly-OH; configuration not given here) | -2.33 |
| CNC(C)Cc1ccc2c(c1)OCO2 (stereo not drawn) | 2.15 |
| Clc1ccc(CNc2ncnc3nc[nH]c23)cc1 | 2.9 |
| Clc1ccc(N2CCN(CCn3nc4ccccc4n3)CC2)cc1 | 4.05 |
| CN(C)CCC(c1ccccc1)c1ccccc1 | 4.31 |
| CC#CC(O)c1c(C)nc2c3c(c(C(=O)N(C)C)cn12)CCC(c1ccccc1)O3 (stereo not drawn) | 2.7 |
| CN(C)CCOC(=O)c1ccc(C(C)(C)C)cc1 | 3.94 |
| CN1CCN2c3ccccc3Cc3ccccc3C2C1 (stereo not drawn) | 4.24 |
| O=C(O)CCCCON=C(c1cccc(C(F)(F)F)c1)c1cnccn1 | 3.26 |
| O=C(Cc1ccccc1)OC1Cc2c(O)cc(O)cc2OC1c1ccc(O)c(O)c1 (stereo not drawn) | 3.09 |
| CC(C)(C)Nc1nc(N)nc(Cl)n1 | 1.94 |
| C=CCN(N=O)C(=O)N(CCC)CCCCC(NC(C)=O)C(=O)NCc1ccccc1 (stereo not drawn) | 2.11 |
| COc1ccccc1N1CCN(c2ccc(Nn3c(C)ccc3C)nn2)CC1 | 3.61 |
| CCCCCNC(=O)N1C(=O)N(C)CC1O (stereo not drawn) | 1.75 |
| CCCNc1ccncc1S(=O)(=O)NC(=NC#N)NC(C)C | 0.35 |
| NC(Cc1ccccc1)C(=O)NC(Cc1ccccc1)C(=O)NC(Cc1ccccc1)C(=O)O (stereo not drawn) (H-Phe-Phe-Phe-OH; configuration not given here) | -0.02 |
| COC(=O)c1cc(NC(=O)Cn2c(C)nc3ccccc3c2=O)cc(C(=O)OC)c1 | 2.98 |
| O=C(NC1CCCCC1)NS(=O)(=O)c1cnccc1NC1CCCCCC1 | 4.59 |
| CCCCCOCCCNc1ncnc2c1ncn2C1OC(CO)C(O)C1O (stereo not drawn) | 1.82 |
| CCOP(=O)(OCC)C(C)(C)[N+]([O-])=Cc1ccccn1 | 0.68 |
| CC1(C)C2CCC(CO)C1C2 (stereo not drawn) | 3.41 |
| CC(C)CC(NC(=O)C(Cc1ccccc1)NC(=O)C(N)C(C)C)C(=O)NC(C(=O)O)C(C)O (stereo not drawn) (H-VFLT-OH; configuration not given here) | -1.32 |
| Cc1c2occc2cc2ccc(=O)oc12 | 2.48 |
| CCN(CC)CCSC(=NO)c1nc(-c2ccccc2)no1 | 3.05 |
| CC(Nc1ccc([N+](=O)[O-])cc1[N+](=O)[O-])C(=O)O (stereo not drawn) | 2.09 |

| SMILES | logP |
| --- | --- |
| Cc1sc2cc3oc(=O)cc(C)c3cc2c1C | 3.48 |
| Cc1cc2c(s1)Nc1ccccc1N=C2N1CCN(C)CC1 | 3 |
| Cc1cccc(OCC2CN=C(N)O2)c1C (stereo not drawn) | 2.25 |
| C=CCNC(=O)N(CCCC(NC(C)=O)C(=O)NCc1ccccc1)Cc1ccccc1 (stereo not drawn) | 1.44 |
| CCN(CC)c1nc(N)nc(Cl)n1 | 2.14 |
| c1ccc(CSSc2ncc[nH]2)cc1 | 3.05 |
| O=c1cc(CSC2CCCCC2)occ1O | 1.75 |
| CCCON=C(C)c1cccc(Oc2nc(OC)cc(OC)n2)c1C(=O)OC | 3.59 |
| CC(C)=CCCC(C)=CCCC(C)(C)O | 4.54 |
| CCCCCOc1cccc(NC(=O)OCCN2CCCCC2)c1 | 5.5 |
| CCCN(CCCCC(NC(C)=O)C(=O)NCc1ccccc1)C(=O)N(CCCl)N=O (stereo not drawn) | 1.99 |
| O=C(NS(=O)(=O)c1cnccc1NC1CCCCCCC1)N1CCCCC1 | 4.55 |
| COC(=O)Nc1c(C)cccc1C | 1.69 |
| COc1cc2ccncc2cc1OC | 1.68 |
| Cc1ccc(CNc2ncnc3nc[nH]c23)cc1 | 2.66 |
| Clc1ccccc1CNc1ncnc2nc[nH]c12 | 2.76 |
| CCCN(C)CC(=O)Nc1c(C)cccc1C | 2.28 |
| COC(=O)N1CCN(C(=O)Cc2ccc(Cl)c(Cl)c2)C(CN2CCCC2)C1 (stereo not drawn) | 4.1 |
| CCCCN(CCO)CCCC | 2.65 |
| CC(C)(C)NC(=O)[C@@H]1CN(Cc2cccnc2)CCN1C[C@@H](O)C[C@@H](Cc1ccccc1)C(=O)N[C@H]1c2ccccc2C[C@H]1O | 3.49 |
| C=CC1(C)C=C2CCC3C(C)(CO)CCCC3(C)C2CC1 (stereo not drawn) | 6.85 |
| COC(=O)C=CCn1cnc([N+](=O)[O-])n1 | 0.09 |
| O=C(O)CCCCCON=C(c1ccccc1)c1cncnc1 | 2.91 |
